One assay has as its target T1, mALDH1a3 (Mus musculus, UniProt Q9JHW9).
T1 construct: made in house; host or cells: E. coli BL21-DE3, pET-Aldh1a3
T1 sequence (Q9JHW9 1-512): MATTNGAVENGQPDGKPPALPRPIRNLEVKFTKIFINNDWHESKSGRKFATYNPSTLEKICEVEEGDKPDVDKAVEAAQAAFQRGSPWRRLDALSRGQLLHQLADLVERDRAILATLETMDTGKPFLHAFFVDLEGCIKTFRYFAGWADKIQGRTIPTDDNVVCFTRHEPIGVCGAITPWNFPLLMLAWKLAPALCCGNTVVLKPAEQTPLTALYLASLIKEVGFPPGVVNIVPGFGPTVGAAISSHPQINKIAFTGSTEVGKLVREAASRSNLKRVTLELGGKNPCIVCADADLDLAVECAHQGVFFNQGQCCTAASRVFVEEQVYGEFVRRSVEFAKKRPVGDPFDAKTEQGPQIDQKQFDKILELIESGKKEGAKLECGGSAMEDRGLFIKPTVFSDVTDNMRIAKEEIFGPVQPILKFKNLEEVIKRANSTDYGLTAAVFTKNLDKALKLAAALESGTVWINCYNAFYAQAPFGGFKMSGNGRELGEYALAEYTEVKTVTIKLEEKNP
Kind of assay: Aldh1a3 enzyme inhibition assay, recombinant mALDH1a3. In kind it is biochemical. The note with it: resorufin fluorescence, 20° C. The text has this:
(§1) Recombinant enzyme and inhibitor added immediately before assay. Reaction rate measured by resorufin fluorescence.

Another assay deals with T2, ALDH1a3 (Homo sapiens, UniProt P47895).
T2 sequence (P47895 1-512): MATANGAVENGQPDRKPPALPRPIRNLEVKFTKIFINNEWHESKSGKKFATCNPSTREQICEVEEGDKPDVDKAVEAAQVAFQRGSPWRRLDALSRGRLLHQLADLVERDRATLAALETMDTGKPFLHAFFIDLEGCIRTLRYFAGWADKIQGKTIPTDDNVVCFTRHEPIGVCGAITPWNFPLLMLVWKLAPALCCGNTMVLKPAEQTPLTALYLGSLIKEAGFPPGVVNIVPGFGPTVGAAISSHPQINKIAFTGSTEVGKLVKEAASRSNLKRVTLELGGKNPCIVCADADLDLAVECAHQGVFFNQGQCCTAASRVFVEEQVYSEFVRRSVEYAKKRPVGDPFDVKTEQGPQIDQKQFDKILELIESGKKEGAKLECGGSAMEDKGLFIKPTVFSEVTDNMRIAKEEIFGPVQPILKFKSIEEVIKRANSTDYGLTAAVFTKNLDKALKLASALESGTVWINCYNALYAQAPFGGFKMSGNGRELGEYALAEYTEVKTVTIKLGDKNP
Description: Aldh1a3 enzyme inhibition assay, recombinant hALDH1a3. In kind it is biochemical. Also noted: made in house; host or cells: E. coli BL21-DE3, pET-Aldh1a3. The note with it: resorufin fluorescence, 20° C.
Excerpt: as §1

Our source for the IC50 values is patent publication US20230128402A1 (The Trustees of Princeton University, priority 2020, published 2023).

Structures are written as SMILES.

One may read the IC50 as the midpoint of a concentration-inhibition curve. Consider `CCCc1cnccc1C(=O)Nc1cc2c(cc1F)NC(=O)CC2` [Compound 5], for which the values for the IC50 at mALDH1a3 and at ALDH1a3 were 0.25 to 1 µM and less than 0.1 µM, respectively.

Take `CC(C)c1cnccc1C(=O)Nc1cc2c(cc1F)NC(=O)CC2` [Compound 6]: the IC50 at mALDH1a3 and on ALDH1a3 was 1 to 5 µM in each case.

As for `CCc1cnc(C)cc1C(=O)Nc1cc2c(cc1F)NC(=O)CC2` [Compound 8], the half-maximal inhibitory concentration (IC50) is 0.1 to 0.25 µM on mALDH1a3 and less than 0.1 µM at ALDH1a3.

With `CCc1cnccc1C(=O)Nc1ccc2c(c1)CC(C)(C)C(=O)N2` [Compound 18, N-(3,3-dimethyl-2-oxo-1,4-dihydroquinolin-6-yl)-3-ethyl-pyridine-4-carboxamide], the IC50 on mALDH1a3 lay in the range of 1 to 5 µM; at ALDH1a3, 0.1 to 0.25 µM.

As to `CCc1cnccc1C(=O)Nc1ccc2c(c1)C(C)(C)CC(=O)N2` [Compound 19, N-(4,4-dimethyl-2-oxo-1,3-dihydroquinolin-6-yl)-3-ethyl-pyridine-4-carboxamide], the IC50 at mALDH1a3 is 1 to 5 µM; at ALDH1a3, 0.25 to 1 µM.

Consider `CCc1cnccc1C(=O)Nc1ccc2c(c1)CN(C)C(=O)N2` [Compound 20, 3-ethyl-N-(3-methyl-2-oxo-1,4-dihydroquinazolin-6-yl)pyridine-4-carboxamide], for which the IC50 on mALDH1a3 is more than 5 µM; on ALDH1a3, 1 to 5 µM.

For `Cc1cnccc1C(=O)Nc1ccc2c(c1)CCC(=O)N2` [Compound 21], the 50% inhibitory concentration (IC50) on mALDH1a3 and on ALDH1a3 was more than 5 µM throughout.

Turning to `O=C1CCc2cc(Nc3nccc4ccccc34)ccc2N1` [Compound 22, 6-(1-isoquinolylamino)-3,4-dihydro-1H-quinolin-2-one], the IC50 on mALDH1a3 and at ALDH1a3 was more than 5 µM throughout.

For the compound `CCc1cnccc1C(=O)Nc1ccc2c(c1)CCC(=O)N2C` [Compound 23, 3-ethyl-N-(1-methyl-2-oxo-3,4-dihydroquinolin-6-yl)pyridine-4-carboxamide], the IC50 on mALDH1a3 was 1 to 5 µM; at ALDH1a3 it was more than 5 µM.

Regarding `Cc1cc(C(=O)Nc2ccc3c(c2)CCC(=O)N3)ccn1` [Compound 24], the IC50 at mALDH1a3 and at ALDH1a3 was more than 5 µM in each case.

For `CCc1cnccc1NC(=O)c1ccc2c(c1)CCC(=O)N2` [Compound 26, N-(3-ethyl-4-pyridyl)-2-oxo-3,4-dihydro-1H-quinoline-6-carboxamide], the IC50 at mALDH1a3 and at ALDH1a3 was more than 5 µM in each case.

On to `CCc1cnccc1C(=O)N(C)c1ccc2c(c1)CCC(=O)N2` [Compound 27, 3-ethyl-N-methyl-N-(2-oxo-3,4-dihydro-1H-quinolin-6-yl)pyridine-4-carboxamide], for which the IC50 on mALDH1a3 and on ALDH1a3 was more than 5 µM each time.

In the case of `CCc1cnccc1C(=O)NCc1ccc2c(c1)CCC(=O)N2` [Compound 28, 3-ethyl-N-[(2-oxo-3,4-dihydro-1H-quinolin-6-yl)methyl]pyridine-4-carboxamide], the IC50 at mALDH1a3 and on ALDH1a3 was more than 5 µM throughout.

`CCc1cc(C(=O)Nc2ccc3c(c2)CCC(=O)N3)ccn1` [Compound 29]: the IC50 at mALDH1a3 and on ALDH1a3 was more than 5 µM in each case.

Regarding `Cc1cnccc1/C=C/c1ccc2c(c1)CCC(=O)N2` [Compound 30, 6-[(E)-2-(3-methyl-4-pyridyl)vinyl]-3,4-dihydro-1H-quinolin-2-one], the concentration for half-maximal inhibition (IC50) at mALDH1a3 was 1 to 5 µM; at ALDH1a3, more than 5 µM.

On to `CCc1cnccc1CC(=O)Nc1ccc2c(c1)CCC(=O)N2` [Compound 31, 2-(3-ethyl-4-pyridyl)-N-(2-oxo-3,4-dihydro-1H-quinolin-6-yl) acetamide], for which the IC50 at mALDH1a3 and on ALDH1a3 was more than 5 µM throughout.

Consider `CCc1cnccc1C(=O)Nc1ccc2c(c1)NC(=O)CC2` [Compound 32], for which the IC50 at mALDH1a3 and on ALDH1a3 was more than 5 µM each time.

As to `CCc1cnccc1/C=C/c1ccc2c(c1)CCC(=O)N2` [Compound 33, 6-[(E)-2-(3-ethyl-4-pyridyl)vinyl]-3,4-dihydro-1H-quinolin-2-one], the IC50 on mALDH1a3 and at ALDH1a3 was 0.1 to 0.25 µM throughout.

`CC1(C)CC(=O)Nc2ccc(Nc3nccc4ccccc34)cc21` [Compound 34, 6-(1-isoquinolylamino)-4,4-dimethyl-1,3-dihydroquinolin-2-one]: the half-inhibitory concentration (IC50) on mALDH1a3 and on ALDH1a3 was more than 5 µM throughout.

For the compound `O=C1CCc2cc(Nc3ccc4ccccc4n3)ccc2N1` [Compound 35, 6-(2-quinolylamino)-3,4-dihydro-1H-quinolin-2-one], the IC50 at mALDH1a3 is less than 0.1 µM; at ALDH1a3, 0.25 to 1 µM.

As for `Cc1cc(C(=O)Nc2cc3c(cc2F)NC(=O)C(C)(C)C3)c(CC(C)C)cn1` [Compound 37, N-(7-fluoro-3,3-dimethyl-2-oxo-1,4-dihydroquinolin-6-yl)-5-isobutyl-2-methyl-pyridine-4-carboxamide], the values for the IC50 at mALDH1a3 and on ALDH1a3 were more than 5 µM and 1 to 5 µM, respectively.

For `CCc1cnccc1C(=O)Nc1cc2c(cc1F)NC(=O)C(C)(C)C2` [Compound 38], the IC50 on mALDH1a3 was in the range of 1 to 5 µM; on ALDH1a3 it was 0.25 to 1 µM.

In the case of `CCc1cnccc1C(=O)Nc1cc2ccc(=O)[nH]c2cc1F` [Compound 39, 3-ethyl-N-(7-fluoro-2-oxo-1H-quinolin-6-yl) pyridine-4-carboxamide], the IC50 at mALDH1a3 lay within 1 to 5 µM; on ALDH1a3, 0.25 to 1 µM.

Take `CCc1cnccc1C(=O)Nc1cc2c(cc1F)NC(=O)CC2(C)C` [Compound 40]: the IC50 is 0.25 to 1 µM on mALDH1a3 and 1 to 5 µM at ALDH1a3.

Turning to `COc1cnccc1C(=O)Nc1cc2c(cc1F)NC(=O)C(C)(C)C2` [Compound 41, N-(7-fluoro-3,3-dimethyl-2-oxo-1,4-dihydroquinolin-6-yl)-3-methoxy-pyridine-4-carboxamide], the IC50 on mALDH1a3 and on ALDH1a3 was more than 5 µM each time.

Regarding `CCc1cc(C#N)ccc1C(=O)Nc1cc2c(cc1F)NC(=O)C(C)(C)C2` [Compound 42, 4-cyano-2-ethyl-N-(7-fluoro-3,3-dimethyl-2-oxo-1,4-dihydroquinolin-6-yl)benzamide], the IC50 on mALDH1a3 and on ALDH1a3 was 1 to 5 µM throughout.

As for `CCc1cnccc1/C=C/c1ccc2c(c1)CC(C)(C)C(=O)N2` [Compound 43, 6-[(E)-2-(3-ethyl-4-pyridyl)vinyl]-3,3-dimethyl-1,4-dihydroquinolin-2-one], the IC50 is 1 to 5 µM at mALDH1a3 and 0.25 to 1 µM on ALDH1a3.

`CCc1cnccc1/C=C/c1cc2c(cc1F)NC(=O)CC2` [Compound 45, 6-[(E)-2-(3-ethyl-4-pyridyl)vinyl]-7-fluoro-3,4-dihydro-1H-quinolin-2-one]: the IC50 on mALDH1a3 and at ALDH1a3 was 0.25 to 1 µM throughout.

For `CC1(C)Cc2cc(Nc3ccc4ccccc4n3)ccc2NC1=O` [Compound 46, 3,3-dimethyl-6-(2-quinolylamino)-1,4-dihydroquinolin-2-one], the IC50 on mALDH1a3 and on ALDH1a3 was 1 to 5 µM in each case.

For `O=C1CCc2cc(Nc3ccc4ccccc4n3)c(F)cc2N1` [Compound 47, 7-fluoro-6-(2-quinolylamino)-3,4-dihydro-1H-quinolin-2-one], the IC50 on mALDH1a3 was less than 0.1 µM; on ALDH1a3, 0.1 to 0.25 µM.

As for `CC1(C)Cc2cc(Nc3ccc4ccccc4n3)c(F)cc2NC1=O` [Compound 48, 7-fluoro-3,3-dimethyl-6-(2-quinolylamino)-1,4-dihydroquinolin-2-one], the IC50 on mALDH1a3 and at ALDH1a3 was 0.25 to 1 µM each time.

For the compound `CCc1c(C(=O)Nc2ccc3c(c2)CCC(=O)N3)cc[nH]c1=O` [Compound 50, 3-ethyl-2-oxo-N-(2-oxo-3,4-dihydro-1H-quinolin-6-yl)-1H-pyridine-4-carboxamide], the IC50 on mALDH1a3 lay in the range of 1 to 5 µM; at ALDH1a3, 0.1 to 0.25 µM.

Regarding `CCc1c[nH]c(=O)cc1C(=O)Nc1ccc2c(c1)CCC(=O)N2` [Compound 51, 5-ethyl-2-oxo-N-(2-oxo-3,4-dihydro-1H-quinolin-6-yl)-1H-pyridine-4-carboxamide], the IC50 at mALDH1a3 and at ALDH1a3 was more than 5 µM each time.

In the case of `O=C1CCc2cc(NC(=O)c3ccnc4ccccc34)ccc2N1` [Compound 52, N-(2-oxo-3,4-dihydro-1H-quinolin-6-yl)quinoline-4-carboxamide], the values for the IC50 at mALDH1a3 and at ALDH1a3 were 0.1 to 0.25 µM and 0.25 to 1 µM, respectively.

On to `O=C1CCc2cc(NC(=O)c3ccncc3C(F)(F)F)ccc2N1` [Compound 54, N-(2-oxo-3,4-dihydro-1H-quinolin-6-yl)-3-(trifluoromethyl)pyridine-4-carboxamide], for which the IC50 is more than 5 µM at mALDH1a3 and 0.25 to 1 µM on ALDH1a3.
